Patent US6737383B1, “Herbicidal oxadiazolidines” (priority 1999, dated 2004)

How the values were obtained:
[1] = test system: winter wheat; test: Test E winter wheat; assay type: in vivo, Triticum aestivum; conditions: Postemergence, 0 to 100 scale
Method in brief: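 Plants were grown under normal greenhouse practice; for postemergence, in sandy loam soil mixed 60:40 with potting mix, treated at the 1- to 4-leaf stage. The compound was in a non-phytotoxic solvent carrying a surfactant. After roughly 21 to 28 days plants were scored visually against untreated plants.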

[2] = test system: cocklebur; test: Test B pre/postemergence cocklebur; assay type: in vivo, Xanthium strumarium; conditions: for Cocklebur plant response rating (0 to 10 scale): 0 is no effect
Method in brief: (§1)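 Test chemicals in a non-phytotoxic solvent mixture with surfactant were sprayed preemergence onto planted seeds and postemergence onto plants 2 to 18 cm tall (1- to 4-leaf stage). After twelve to sixteen days in a greenhouse, injury was visually rated against untreated controls from 0 (no effect) to 10 (complete control).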

[3] = test system: Italian ryegrass; test: Test E Italian ryegrass; assay type: in vivo, Lolium multiflorum; conditions: Preemergence; for I. Ryegrass plant response rating (0 to 100 scale): Rate 250 g/ha
[4] = test system: blackgrass; test: Test E blackgrass; assay type: in vivo, Alopecurus myosuroides; conditions: Preemergence; for Blackgrass plant response rating (0 to 100 scale): Rate 250 g/ha
[5] = test system: wild oat; test: Test B pre/postemergence wild oat; assay type: in vivo, Avena fatua
Method in brief: as §1

[6] = test system: crabgrass; test: Test B pre/postemergence crabgrass; assay type: in vivo, Digitaria sanguinalis; conditions: for Crabgrass plant response rating (0 to 10 scale): 0 is no effect
Method in brief: as §1

[7] = test system: winter wheat; test: Test E winter wheat; assay type: in vivo, Triticum aestivum; conditions: Preemergence; for Wheat (winter) plant response rating (0 to 100 scale): Rate 250 g/ha
[8] = test system: winter barley; test: Test E winter barley; assay type: in vivo, Hordeum vulgare; conditions: Preemergence; for Barley (winter) plant response rating (0 to 100 scale): Rate 250 g/ha
[9] = test system: wheat; test: Test B pre/postemergence wheat; assay type: in vivo, Triticum aestivum
Method in brief: as §1

[10] = test system: green foxtail; test: Test E green foxtail; assay type: in vivo, Setaria viridis; conditions: Preemergence; for Green foxtail plant response rating (0 to 100 scale): Rate 250 g/ha
[11] = test system: wild oat; test: Test E wild oat; assay type: in vivo, Avena fatua; conditions: Preemergence; for Wild oat plant response rating (0 to 100 scale): Rate 250 g/ha
[12] = Rate 1000 g/ha, 0 is no effect and 100 is complete control
[13] = Rate 500 g/ha, 0 is no effect, 100 is complete control
[14] = Postemergence, Rate 125 g/ha, scale of 0 to 10 where 0 is no effect and 10 is complete control
[15] = Preemergence, Rate 62 g/ha, scale of 0 to 10 where 0 is no effect and 10 is complete control
[16] = Preemergence, Rate 125 g/ha, 10 is complete control
[17] = Preemergence, Rate 250 g/ha, scale 0 to 10, 0 is no effect, 10 is complete control
[18] = Preemergence, Rate 500 g/ha, scale 0 to 10 (0 no effect, 10 complete control)
[19] = Rate 62 g/ha, Postemergence, scale of 0 to 10 where 0 is no effect and 10 is complete control
[20] = Rate 250 g/ha, Postemergence, scale 0 to 10, 0 is no effect, 10 is complete control
[21] = Rate 500 g/ha, Postemergence, scale 0 to 10
[22] = Rate 500 g/ha, 0 to 100 scale where 0 is no effect and 100 is complete control
[23] = Rate 1000 g/ha, 0 to 100 scale where 0 is no effect and 100 is complete control
[24] = Preemergence, Rate 125 g/ha, 0 is no effect, 10 is complete control
[25] = Rate 125 g/ha, Postemergence, scale 0 to 10
[26] = Rate 125 g/ha, 0 to 100 scale (0 no effect, 100 complete control)
[27] = Preemergence, Rate 500 g/ha, scale of 0 to 10 where 0 is no effect and 10 is complete control

`CC1CCCCC1n1c(=O)on(C(=O)N(c2ccc(F)cc2F)C(C)C)c1=O` (centres unmarked) [Compound 172] was tested, and the “Plant response rating, Wheat (winter)” value [1, 12] was 50, the “Plant response rating, Wheat (winter)” value [1, 13] was 40 and the “Cocklebur plant response rating” value [2, 14] was 0. For the same molecule, the “Cocklebur plant response rating” value [2, 15] was 0, the “Cocklebur plant response rating (0 to 10 scale)” value [2, 16] was 0 and the “Cocklebur plant response rating” value [2, 17] was 0. The “Cocklebur plant response rating” value [2, 18] was 0, the “Cocklebur plant response rating” value [2, 19] was 0 and the “Plant response rating, Cocklebur” value [2, 20] was 0. The “Cocklebur plant response rating” value [2, 21] was 2, the “I. Ryegrass plant response rating (0 to 100 scale)” value (“I. Ryegrass plant response rating” below) [3] was 30 and the “Plant response rating, I. Ryegrass” value [3, 22] was 65. For the same molecule, the “Plant response rating, I. Ryegrass” value [3, 23] was 80, the “Blackgrass plant response rating (0 to 100 scale)” value (shortened to “Blackgrass plant response rating”) [4] was 50 and the “Plant response rating, Blackgrass” value [4, 22] was 60. The “Plant response rating, Blackgrass” value [4, 23] was 80, the “Wild oats plant response rating” value [5, 15] was 0 and the “Wild oats plant response rating (0 to 10 scale)” value [5, 24] was 0. For the same molecule, the “Wild oats plant response rating” value [5, 17] was 3, the “Wild oats plant response rating” value [5, 18] was 6 and the “Plant response rating, Wild oats” value [5, 20] was 0. The “Wild oats plant response rating” value [5, 21] was 0, the “Crabgrass plant response rating” value [6, 14] was 3 and the “Crabgrass plant response rating” value [6, 15] was 7. For the same molecule, the “Crabgrass plant response rating (0 to 10 scale)” value [6, 16] was 8, the “Crabgrass plant response rating” value [6, 17] was 10 and the “Crabgrass plant response rating” value [6, 18] was 10. For the same molecule, the “Crabgrass plant response rating” value [6, 19] was 0, the “Plant response rating, Crabgrass” value [6, 20] was 9 and the “Crabgrass plant response rating” value [6, 21] was 9. For the same molecule, the “Wheat (winter) plant response rating (0 to 100 scale)” value (“Wheat (winter) plant response rating” below) [7] was 10, the “Plant response rating, Wheat (winter)” value [7, 22] was 20 and the “Plant response rating, Wheat (winter)” value [7, 23] was 30. The “Barley (winter) plant response rating (0 to 100 scale)” value (from here on “Barley (winter) plant response rating”) [8] was 40, the “Plant response rating, Barley (winter)” value [8, 22] was 40 and the “Plant response rating, Barley (winter)” value [8, 23] was 20. The “Wheat plant response rating” value [9, 15] was 0, the “Wheat plant response rating (0 to 10 scale)” value [9, 24] was 0 and the “Wheat plant response rating” value [9, 17] was 0. The “Wheat plant response rating” value [9, 18] was 0, the “Plant response rating, Wheat” value [9, 20] was 0 and the “Wheat plant response rating” value [9, 21] was 0. For the same molecule, the “Green foxtail plant response rating (0 to 100 scale)” value (“Green foxtail plant response rating” below) [10] was 60, the “Plant response rating, Green foxtail” value [10, 22] was 85 and the “Plant response rating, Green foxtail” value [10, 23] was 100. The “Wild oat plant response rating (0 to 100 scale)” value (“Wild oat plant response rating” for short) [11] was 30, the “Plant response rating, Wild oat” value [11, 22] was 40 and the “Plant response rating, Wild oat” value [11, 23] was 50.

`Cc1nc(C)c(Cn2c(=O)on(C(=O)N(c3ccc(Cl)cc3)C(C)C)c2=O)s1` [Compound 191] was tested, and the “Plant response rating, Wheat (winter)” value ([1]; Rate 125 g/ha) was 30, the “Plant response rating, Wheat (winter)” value [1, 13] was 60 and the “Cocklebur plant response rating” value [2, 15] was 0. The “Cocklebur plant response rating (0 to 10 scale)” value [2, 16] was 0, the “Cocklebur plant response rating” value [2, 17] was 0 and the “Cocklebur plant response rating” value [2, 18] was 0. For the same molecule, the “Cocklebur plant response rating” value [2, 19] was 1, the “Cocklebur plant response rating” value [2, 25] was 2 and the “Plant response rating (0 to 10; 0 is no effect, 10 is complete control), Cocklebur” value ([2]; Rate 250 g/ha, Postemergence) was 2. For the same molecule, the “Cocklebur plant response rating” value [2, 21] was 3, the “Plant response rating, I. Ryegrass” value [3, 26] was 0 and the “I. Ryegrass plant response rating” value [3] was 0. The “Plant response rating, I. Ryegrass” value [3, 22] was 30, the “Plant response rating, Blackgrass” value [4, 26] was 10 and the “Blackgrass plant response rating” value [4] was 20. The “Plant response rating, Blackgrass” value [4, 22] was 30, the “Wild oats plant response rating” value [5, 17] was 3 and the “Wild oats plant response rating” value [5, 18] was 7. For the same molecule, the “Wild oats plant response rating” value [5, 19] was 0, the “Wild oats plant response rating” value [5, 25] was 0 and the “Plant response rating (0 to 10; 0 is no effect, 10 is complete control), Wild oats” value ([5]; Rate 250 g/ha, Postemergence) was 0. The “Crabgrass plant response rating” value [6, 15] was 0, the “Crabgrass plant response rating (0 to 10 scale)” value [6, 16] was 3 and the “Crabgrass plant response rating” value [6, 17] was 8. The “Crabgrass plant response rating” value [6, 18] was 8, the “Crabgrass plant response rating” value [6, 19] was 2 and the “Crabgrass plant response rating” value [6, 25] was 2. For the same molecule, the “Plant response rating (0 to 10; 0 is no effect, 10 is complete control), Crabgrass” value ([6]; Rate 250 g/ha, Postemergence) was 3, the “Crabgrass plant response rating” value [6, 21] was 6 and the “Plant response rating, Wheat (winter)” value [7, 26] was 10. The “Wheat (winter) plant response rating” value [7] was 30, the “Plant response rating, Wheat (winter)” value [7, 22] was 50 and the “Plant response rating, Barley (winter)” value [8, 26] was 10. For the same molecule, the “Barley (winter) plant response rating” value [8] was 30, the “Plant response rating, Barley (winter)” value [8, 22] was 20 and the “Wheat plant response rating” value [9, 15] was 0. The “Wheat plant response rating” value [9, 17] was 0, the “Wheat plant response rating” value [9, 18] was 2 and the “Wheat plant response rating” value [9, 19] was 0. For the same molecule, the “Wheat plant response rating” value [9, 25] was 0, the “Plant response rating (0 to 10; 0 is no effect, 10 is complete control), Wheat” value ([9]; Rate 250 g/ha, Postemergence) was 0 and the “Plant response rating, Green foxtail” value [10, 26] was 30. For the same molecule, the “Green foxtail plant response rating” value [10] was 40, the “Plant response rating, Green foxtail” value [10, 22] was 50 and the “Plant response rating, Wild oat” value [11, 26] was 30. For the same molecule, the “Wild oat plant response rating” value [11] was 40 and the “Plant response rating, Wild oat” value [11, 22] was 50.

For `CC(C)N(C(=O)n1oc(=O)n(Cc2ccco2)c1=O)c1ccc(F)cc1` [Compound 207], the “Plant response rating, Wheat (winter)” value [1, 12] was 50, the “Plant response rating, Wheat (winter)” value [1, 13] was 30 and the “Cocklebur plant response rating” value [2, 15] was 0. For the same molecule, the “Cocklebur plant response rating (0 to 10 scale)” value [2, 16] was 0, the “Cocklebur plant response rating” value [2, 17] was 0 and the “Plant response rating, Cocklebur” value [2, 27] was 0. The “Cocklebur plant response rating” value [2, 19] was 0, the “Cocklebur plant response rating” value [2, 25] was 0 and the “Plant response rating (0 to 10; 0 is no effect, 10 is complete control), Cocklebur” value ([2]; Rate 250 g/ha, Postemergence) was 0. For the same molecule, the “Cocklebur plant response rating” value [2, 21] was 3, the “I. Ryegrass plant response rating” value [3] was 40 and the “Plant response rating, I. Ryegrass” value [3, 22] was 55. For the same molecule, the “Plant response rating, I. Ryegrass” value [3, 23] was 30, the “Blackgrass plant response rating” value [4] was 30 and the “Plant response rating, Blackgrass” value [4, 22] was 80. The “Plant response rating, Blackgrass” value [4, 23] was 85, the “Wild oats plant response rating” value [5, 15] was 0 and the “Wild oats plant response rating” value [5, 17] was 0. The “Plant response rating, Wild oats” value [5, 27] was 0, the “Wild oats plant response rating” value [5, 19] was 0 and the “Wild oats plant response rating” value [5, 25] was 0. The “Plant response rating (0 to 10; 0 is no effect, 10 is complete control), Wild oats” value ([5]; Rate 250 g/ha, Postemergence) was 0, the “Crabgrass plant response rating” value [6, 15] was 0 and the “Crabgrass plant response rating (0 to 10 scale)” value [6, 16] was 0. For the same molecule, the “Crabgrass plant response rating” value [6, 17] was 3, the “Plant response rating, Crabgrass” value [6, 27] was 4 and the “Crabgrass plant response rating” value [6, 19] was 0. For the same molecule, the “Crabgrass plant response rating” value [6, 25] was 0, the “Plant response rating (0 to 10; 0 is no effect, 10 is complete control), Crabgrass” value ([6]; Rate 250 g/ha, Postemergence) was 2 and the “Crabgrass plant response rating” value [6, 21] was 3. For the same molecule, the “Wheat (winter) plant response rating” value [7] was 60, the “Plant response rating, Wheat (winter)” value [7, 22] was 70 and the “Plant response rating, Wheat (winter)” value [7, 23] was 70. The “Barley (winter) plant response rating” value [8] was 65, the “Plant response rating, Barley (winter)” value [8, 22] was 70 and the “Plant response rating, Barley (winter)” value [8, 23] was 80. The “Wheat plant response rating” value [9, 15] was 0, the “Wheat plant response rating” value [9, 17] was 0 and the “Plant response rating, Wheat” value [9, 27] was 0. For the same molecule, the “Wheat plant response rating” value [9, 19] was 0, the “Wheat plant response rating” value [9, 25] was 0 and the “Plant response rating (0 to 10; 0 is no effect, 10 is complete control), Wheat” value ([9]; Rate 250 g/ha, Postemergence) was 0. For the same molecule, the “Green foxtail plant response rating” value [10] was 80, the “Plant response rating, Green foxtail” value [10, 22] was 90 and the “Plant response rating, Green foxtail” value [10, 23] was 100. The “Wild oat plant response rating” value [11] was 65, the “Plant response rating, Wild oat” value [11, 22] was 70 and the “Plant response rating, Wild oat” value [11, 23] was 70.
